Test systems include 786-0 renal; MCF7 breast; NCI/ADR-RES ovarian; SK-MEL-5 melanoma; MDA-MB-435; RXF 393 renal; NCI-H522 lung; SW-620 colon; HCT-116 colon; HT29 colon.
Assay in all cases: NCI anticancer screen, dose series, 48 h

Several values for one entry are separate records, joined by “and”; a condition that tells them apart may be missing. Identical values can stand only once.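 Dose response: 5 concentrations. Exposure: 48 h. Format: 96-well plates. Endpoint: linear interpolation; highest concentration if not reached. The concentration for 50% growth inhibition is given as GI50. TGI marks complete inhibition of growth.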 Some results are limits rather than exact numbers.

Take `ClCc1cccc(Cn2cnc3c(NC45CC6CC(CC(C6)C4)C5)ncnc32)c1`: the GI50 in the experiment with 786-0 renal was 3.43 µM; with MCF7 breast, 9.1 µM; in the experiment on NCI/ADR-RES ovarian, 16.2 µM; in the experiment with SK-MEL-5 melanoma, 16.4 µM; in the experiment on MDA-MB-435 it was 13.4 µM; in the experiment on RXF 393 renal, 11.4 µM. The GI50 in the experiment on NCI-H522 lung is 17.4 µM; with SW-620 colon, 19.1 µM; in the experiment with HCT-116 colon, 12.6 µM; with HT29 colon, 23.9 µM. Further, the TGI with 786-0 renal turned out to be 25.8 µM; in the experiment with MCF7 breast, 45.5 µM; in the experiment with NCI/ADR-RES ovarian, 41.9 µM; with SK-MEL-5 melanoma, 31.7 µM; in the experiment on MDA-MB-435 it was 29.8 µM; in the experiment on RXF 393 renal, 36.7 µM. Moreover, the TGI with NCI-H522 lung is 39.2 µM; in the experiment on SW-620 colon, 46.2 µM; with HCT-116 colon, 30.4 µM; in the experiment on HT29 colon, > 100 µM.
As for `Cn1ccnc1CC(C)(O)c1ccccc1` (centres undefined), the TGI in the experiment on 786-0 renal, in the experiment with MCF7 breast, in the experiment on NCI/ADR-RES ovarian, in the experiment on SK-MEL-5 melanoma, in the experiment on MDA-MB-435 and in the experiment with RXF 393 renal was > 100 µM each time. Further, the TGI with NCI-H522 lung, in the experiment with SW-620 colon, with HCT-116 colon and with HT29 colon was > 100 µM each time.
On to `CC(=O)N[C@H]1C=C[C@@H]2/C=C(C)/C=C/[C@@H](C)[C@H]([C@H](C)[C@H](O)[C@@H](C)NC(C)=O)OC(=O)/C=C/C=C(C)\C=C\[C@]2(C)C1`, for which the GI50 in the experiment with 786-0 renal was 0.0242 µM and 0.0045 µM; with MCF7 breast, 0.0336 µM and 0.0045 µM; in the experiment on NCI/ADR-RES ovarian it was 0.213 µM and 0.0397 µM; with SK-MEL-5 melanoma, 0.00896 µM and 0.0045 µM; with MDA-MB-435, 0.00823 µM; in the experiment on RXF 393 renal, 0.0103 µM and 0.0045 µM. Further, the GI50 with NCI-H522 lung is 0.0368 µM and 0.00931 µM; in the experiment on SW-620 colon, 0.0178 µM and 0.0045 µM; in the experiment with HCT-116 colon, 0.00564 µM and 0.0045 µM; in the experiment on HT29 colon, 0.00384 µM and 0.0045 µM. Moreover, the TGI in the experiment on 786-0 renal was 4.65 µM and > 45 µM; in the experiment with MCF7 breast, 4.65 µM and > 45 µM; in the experiment on NCI/ADR-RES ovarian, 4.65 µM and > 45 µM; with SK-MEL-5 melanoma, 0.0458 µM and 0.00824 µM; in the experiment with MDA-MB-435, 4.65 µM; with NCI-H522 lung, 4.65 µM and 8.99 µM. The TGI in the experiment with SW-620 colon was 4.65 µM and > 45 µM; in the experiment with HCT-116 colon it was 4.65 µM and > 45 µM; in the experiment on HT29 colon, 4.65 µM and > 45 µM.
`C[C@]12C[C@H](c3ccccc3)Nc3ccccc3N1C(c1ccccc1)=NO2`: the TGI in the experiment with 786-0 renal, with MCF7 breast, with NCI/ADR-RES ovarian, with SK-MEL-5 melanoma, in the experiment with MDA-MB-435 and in the experiment on RXF 393 renal was > 100 µM in each case. Besides, the TGI with NCI-H522 lung, with SW-620 colon, with HCT-116 colon and in the experiment with HT29 colon was > 100 µM throughout.
Take `CC(=O)C(=[N+]=[N-])C(=O)NCC#N`: the TGI in the experiment with 786-0 renal, in the experiment with MCF7 breast, with NCI/ADR-RES ovarian, in the experiment with SK-MEL-5 melanoma, in the experiment on MDA-MB-435 and in the experiment on RXF 393 renal was > 10 µM in each case. For the same compound, the TGI in the experiment on NCI-H522 lung, in the experiment with SW-620 colon, in the experiment with HCT-116 colon and in the experiment on HT29 colon was > 10 µM each time.
On to `COc1ccc(/C=C2\CCC(CNc3cc(C)on3)C2=O)cc1` (centres undefined), for which the TGI with 786-0 renal is > 100 µM; in the experiment on MCF7 breast, > 100 µM; in the experiment on NCI/ADR-RES ovarian it was > 100 µM; with SK-MEL-5 melanoma, > 100 µM; in the experiment with MDA-MB-435, > 100 µM; with RXF 393 renal it was > 21.5 µM. The TGI in the experiment on NCI-H522 lung, in the experiment with SW-620 colon, in the experiment on HCT-116 colon and with HT29 colon was > 100 µM in each case.
As to `COc1cc(Nc2nccc(Nc3ccc4c(C)[nH]nc4c3)n2)cc(OC)c1OC`, the GI50 in the experiment on 786-0 renal is 2.93 µM; in the experiment on MCF7 breast, 1.62 µM; in the experiment on NCI/ADR-RES ovarian it was 4.39 µM; in the experiment with SK-MEL-5 melanoma it was 2.69 µM; in the experiment with MDA-MB-435, 0.666 µM; in the experiment with RXF 393 renal, 0.683 µM. Further, the GI50 was 1.52 µM with NCI-H522 lung, 2.71 µM in the experiment with SW-620 colon, 2.26 µM in the experiment on HCT-116 colon and 0.916 µM with HT29 colon. Moreover, the TGI worked out at 9.7 µM in the experiment on 786-0 renal; 16.9 µM with MCF7 breast; 13.7 µM with NCI/ADR-RES ovarian; 5.96 µM with SK-MEL-5 melanoma; 3.09 µM in the experiment on MDA-MB-435; 3.21 µM in the experiment on RXF 393 renal. Moreover, the TGI in the experiment on NCI-H522 lung stood at 7.18 µM; in the experiment on SW-620 colon, 15.1 µM; with HCT-116 colon, 6.42 µM; in the experiment with HT29 colon it was 4.49 µM.
Take `O=c1c2c(nc3n1CCS3)[nH]c1ccccc12`: the GI50 is > 100 µM in the experiment on 786-0 renal; > 100 µM in the experiment with MCF7 breast; > 100 µM in the experiment with NCI/ADR-RES ovarian; 2.75 µM with SK-MEL-5 melanoma; > 100 µM in the experiment on MDA-MB-435; 58.6 µM in the experiment on RXF 393 renal. Besides, the GI50 in the experiment with NCI-H522 lung, in the experiment on SW-620 colon, with HCT-116 colon and in the experiment with HT29 colon was > 100 µM throughout. For the same compound, the TGI in the experiment on 786-0 renal, in the experiment on MCF7 breast, with NCI/ADR-RES ovarian, with SK-MEL-5 melanoma, with MDA-MB-435 and in the experiment on RXF 393 renal was > 100 µM throughout. Besides, the TGI in the experiment with NCI-H522 lung, with SW-620 colon, in the experiment on HCT-116 colon and in the experiment on HT29 colon was > 100 µM in each case.

Source of the values: PubChem BioAssay (NCI).
